Values quoted from earlier work as cited in patent US20130252843A1, “METHOD OF MAKING AND USING FLUORESCENT-TAGGED NANOPARTICLES AND MICROARRAYS” (THE STATE OF OREGON ACTING BY AND THROUGH THE STATE BOARD …, priority 2010, published 2013).
Read-outs that look alike come from different tables or passages of the source.

What was measured:
[1] = target: BS-I, Bandeiraea simplicifolia lectin; conditions: cited from earlier work
[2] = target: DBA, Dolichos Biflorus Agglutinin; conditions: cited from earlier work
[3] = target: RCA, Ricinus Communis Agglutinin I; conditions: cited from earlier work
PNA, Peanut Agglutinin = target: T1, PNA, Peanut Agglutinin (Arachis hypogaea, UniProt P02872); conditions: cited from earlier work
T1 construct: purchased Sigma-Aldrich

[4] = target: CVN (Cyanovirin-N mutants); conditions: cited from earlier work
[5] = target: CVN-Q, Cyanovirin-N Q^50C (Q50C) mutant (Nostoc ellipsosporum, UniProt P81180, Q50C); conditions: cited from earlier work
[6] = target: CVN-M, Cyanovirin-N Mut^DB (CV-N^MutDB) mutant (Nostoc ellipsosporum, UniProt P81180); conditions: reported association constants, cited from earlier work
Con A, Concanavalin A = Con A, Concanavalin A (Canavalia ensiformis, UniProt P02866); conditions: reported solution association constants, cited from earlier work

Structure (SMILES) | Ka [1] | Ka [2] | Ka [3] | Ka (PNA, Peanut Agglutinin) | Ka [4] | Ka ([5]; Domain A) | Ka ([5]; Domain B) | Ka [6] | Ka ([6]; listed as 2α, 2α-Man3) | Ka (Con A, Concanavalin A) | Ka (Con A, Concanavalin A; listed as 2α, 2α-Man3) | Ka (Con A, Concanavalin A; listed as Man3)
CC(=O)N[C@H]1C(O)O[C@H](CO)[C@H](O)[C@@H]1O (stereo partly drawn) [GalNAc, N-acetylgalactosamine] | 187000 M⁻¹ | ~10^3 M^−1 | 48400 M⁻¹ | 2430 M⁻¹ | – | – | – | – | – | – | – | –
OC[C@H]1O[C@H](O[C@@H]2[C@@H](O[C@@H]3C(O)O[C@H](CO)[C@@H](O)[C@@H]3O)O[C@H](CO)[C@@H](O)[C@@H]2O)[C@@H](O)[C@@H](O)[C@@H]1O (stereo partly drawn) [2α,2α-Man3, α-1,2-α-1,2-mannotriose] | – | – | – | – | 10^5-10^6 M^−1 | 2.94 × 10^5 (Domain A); M^−1 | 2.33 × 10^4 (Domain B) M^−1 | 294000 M⁻¹ | 294000 M⁻¹ | 379000 M⁻¹ | 379000 M⁻¹ | 10^5-10^6 M^−1
